{
  "source": "patent US20250020650A1",
  "about": "“METHOD OF PREDICTING A PATIENT'S BENEFIT FROM THERAPY WITH AN IMMUNE CHECKPOINT INHIBITOR” (EBERHARD KARLS UNIVERSITAET TUEBINGEN MEDIZINISCHE FAKULTAET, priority 2021, published 2025)",
  "key": {"platelets": {"system": "platelets", "experiment": "Controlled platelet stimulation, flow cytometry of pPD-L1", "assay_type": "cell-based, human", "conditions": "10 μM TRAP-6, 2.5 μM ADP or 5 μg/mL collagen for 2 minutes, NSCLC patient platelets", "protocol": "Platelets were obtained from healthy donors (not taking any medication for at least 10 days) and NSCLC patients after informed writing consent. Citrated blood was briefly centrifuged for 20 min at 120×g, the upper fraction was harvested as platelet-rich plasma (PRP). Platelets were washed twice with citrate wash buffer (128 mmol/L NaCl, 11 mmol/L glucose, 7.5 mmol/L Na2HPO4, 4.8 mmol/L sodium citrate, 4.3 mmol/L NaH2PO4, 2.4 citric acid, 0.35% bovine serum albumin, and 50 ng/ml prostaglandin E1 (PGE1)). […] For platelet activation 10 μM of the Thrombin Receptor Activator Peptide 6 (TRAP-6), a protease-activated receptor 1 (PAR1) agonist, 2.5 μM ADP or 5 μg/mL Collagen was added to the platelets for 2 minutes. Platelets were fixed by 2% paraformaldehyde for 10 min and washed twice with PBS containing 1% FCS.\nFlow cytometry was performed using fluorescence-conjugates or specific mAb and their controls followed by species-specific conjugate (Table 2) using a FACS Cantoll flow cytometer […] or a LSRFortessa (Becton Dickinson) from the flow cytometer facility Tuebingen.\nPositive cells in percentage (%) were calculated as follows: Surface expression in percent obtained with the specific antibody—surface expression in percent obtained with isotype control. Platelets were preselected by CD41a^+ and CD62P^− (resting) or CD62P^+ (activated). Data analysis was performed using FlowJo software (v.10). In order to verify the reproducibility of the inventors' flow cytometry system, the inventors performed a Bland-Altman analysis (FIG. 11 f). For immunophenotyping of PBMC subsets of lung cancer patients and healthy control donors were identified by counterstaining with CD3-PECy5 (BD biosciences, San Diego, CA), CD19-APC/Fire750, CD4-Pacific Blue, CD8a-BV605, CD56-PECy7, CD14-BV785, HLA-DR-BV650 (Biolegend, San Diego, CA) and CD16-FITC (Invitrogen). PD-1 and PDL-1 expression as well as activation levels were analyzed using a PD-1-APC or PDL-1-APC and a CD69-PE antibody (BD biosciences), respectively. Isotype controls were obtained from BD biosciences. […]"}, "[1]": {"system": "platelet adhesion to fibronectin", "experiment": "Platelet adhesion to fibronectin-coated surface with platelet-blocking agents", "assay_type": "cell-based, human", "conditions": "washed platelets pretreated 30 minutes at 37° C.; 5 μg/mL anti-CD42b, 20 μg/mL anti-integrin β1 and anti-Integrin α5, 1 μg/mL Tirofiban", "protocol": "To prepare fibronectin matrices, plates were coated with a human plasma fibronectin purified protein (R&D, Minneapolis, MN, USA), (concentration 50 μg/cm^2) for 120 min. For blocking of GPIb-IX-V complex, α5β1 or GPIIbIIIa, washed platelets (8×10^7/mL) were pretreated with 5 μg/mL anti-CD42b (clone: AK2), 20 μg/mL anti-integrin β1 (clone: P4C10) and anti-Integrin α5 (clone: JBS5), 1 μg/mL Tirofiban or corresponding control IgG1 (20 μg/mL) for 30 minutes at 37° C. and 7% CO2. After co-incubation with platelets (8×10^7/mL) for 30 min at 37° C. and 7% CO2, non-adherent platelets were removed via three washing steps using PBS. After removal of non-adherent platelets cells were fixed in 2% PFA in PBS (pH 7.4) for 10 min at −20° C. Platelet adhesion to fibronectin fibrils was evaluated by calculating surface coverage area and platelet count/FoV and from microscopic images using an ImageJ script (v. 1.52)."}, "[2]": {"system": "protein translation in platelets", "experiment": "PD-L1 on cycloheximide pre-treated platelets after co-incubation with PD-L1-GFP transfected A549 cells", "assay_type": "cell-based, human", "conditions": "platelets pre-treated with 100 μM cycloheximide", "protocol": "Tumor cells were coated with platelets as described previously with slight modifications. Briefly summarized, PRP was obtained from fresh whole blood by centrifugation for 20 minutes at 120 g. Platelets were washed twice with citrate wash buffer (128 mmol/L NaCl, 11 mmol/L glucose, 7.5 mmol/L Na2HPO4, 4.8 mmol/L sodium citrate, 4.3 mmol/L NaH2PO4, 2.4 citric acid, 0.35% bovine serum albumin). In some experiments platelets were pretreated with 5 μg/mL anti-CD42b (clone: AK2), 20 μg/mL anti-integrin β1 (clone: P4C10) and anti-Integrin α5 (clone: JBS5) or corresponding control IgG1 (20 μg/mL) for 30 minutes at 37° C. and 7% CO2. Tumor cells were incubated in platelets at a platelet-tumor cell ratio of […] for 30 minutes at 37° C. and 7% CO2. For immunofluorescence microscopy and FACS analysis cells were fixed in 2% PFA in PBS (pH 7.4) for 10 min at −20° C. prior staining.\nFor overexpression of PD-L1 (CD274) a True-ORF-GFP-tagged expression vector was used (OriGene Technologies, Rockville, MD, USA). Control cells were transfected using a FLAG tag. The FLAG cDNA was generated by PCR and cloned into the PD-L1-GFP vector using AsiSI and MluI restriction sites. Tumor cells were transfected with 2.5 μg DNA (PD-L1-GFP, FLAG-GFP) using Lipofectamine™ 3000, in accordance to the manufacturer's instructions."}, "PD-L1 on platelets [3]": {"molecular_target": "T1, PD-L1 on platelets (Homo sapiens, UniProt Q9NZQ7)", "T1 construct": "PD-L1 positive platelets from NSCLC patients were pre-treated with the anti-PD-L1 mAB Atezolizumab; endogenous in cells; host or cells: platelets from the peripheral blood of NSCLC patients", "T1 sequence (Q9NZQ7 19-290)": "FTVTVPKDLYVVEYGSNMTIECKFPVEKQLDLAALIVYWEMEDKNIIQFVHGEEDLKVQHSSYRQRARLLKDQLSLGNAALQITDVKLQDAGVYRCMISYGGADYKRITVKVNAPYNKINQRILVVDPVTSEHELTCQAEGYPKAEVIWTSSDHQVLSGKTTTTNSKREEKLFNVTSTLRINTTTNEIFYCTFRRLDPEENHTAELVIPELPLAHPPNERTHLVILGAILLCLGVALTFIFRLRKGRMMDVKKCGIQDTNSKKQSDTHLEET", "experiment": "IFNγ ELISPOT and cytokine staining of EBV/CMV peptide-stimulated T cells co-incubated with PD-L1 positive platelets", "assay_type": "cell-based", "conditions": "platelets from NSCLC patients pre-treated 30 min, EBV/CMV-derived peptides, IFNγ and TNFα", "protocol": "Freshly thawed (ex vivo) PBMCs from healthy donors were analyzed by enzyme-linked immunospot (ELISPOT) assay in duplicates. Interferon γ (IFNγ) ELISPOT assays in the inventors' study were performed as described previously. In brief, 96-well nitrocellulose plates (Millipore) were coated with 1 mg/mL anti-IFNγ mAb (Mabtech) and incubated overnight at 4° C. In a next step, plates were blocked with human serum (10%) for 2 hours at 37° C. PBMCs (2.5×10^5 cells per well) were pulsed with an EBV/CMV epitope mix containing the frequently recognized peptides BRLF109-117 […] (SEQ ID NO: 11) (A*02) peptide and CMV pp65 (A*02) peptide NLVPMVATV (SEQ ID NO: 12) and incubated with or without platelets (ratio 1:50) for 24 hours. Phytohemagglutinin was used as positive control. HLA-A*02 (KLFEKVKEV (SEQ ID NO: 13))- and B*07 (KPSEKIQVL (SEQ ID NO: 14))-restricted control peptides derived from benign tissues (HV-exclusive HLA ligands) served as negative control. […] Readout was performed according to the manufacturer's instructions. Spots were counted using an ImmunoSpot S5 analyzer (CTL).\nPeptide-specific T cells were further analyzed by intracellular cytokine and cell surface marker staining. […] Viable cells were determined using Aqua live/dead (1:400 dilution, Invitrogen). Samples were analyzed on a FACS Canto II cytometer (BD) and evaluated using FlowJo software v. […]"}, "PD-L1 on platelets [4]": {"molecular_target": "T1, PD-L1 on platelets", "experiment": "NY-ESO-1 specific CD4+ TEM co-incubated with PD-L1 positive platelets (IFNγ and TNFα)", "assay_type": "cell-based", "conditions": "pPD-L1 positive platelets pre-treated with Atezolizumab 100 μg/mL for 30 min, NY-ESO-1 peptides", "protocol": "The generation of NY-ESO-1-specific T cells was performed using as described previously. In brief, PBMCs from a healthy donor (1×10^7/mL) were stimulated using pools of NY-ESO-1 overlapping peptides (1 μg/mL). The NY-ESO-1 overlapping peptide pool of 15 amino acid length (11 amino acid overlap) was purchased via Miltenyi Biotec. The cells were cultured in RPMI 1640 containing 10% human AB-serum and 1% L-glutamin in the presence of 10 U/mL recombinant IL-2 and 10 ng/ml II-7. Culture medium was replaced every third day. After a pre-sensitization period of 7-14 days, NY-ESO-1 specific, IFNγ^+ T cells were enriched after re-stimulation with NY-ESO-1 peptide pool for 6 h using CliniMACS® (Miltenyi Biotec) technique as reported previously. After enrichment, NY-ESO-1 specific T cells were expanded for 14 days in the presence of IL-7 (10 ng/ml), IL-15 (10 ng/mL) and IL-2 (50 U/mL). T cell specificity was analyzed via intracellular IFNγ staining as stated above. For further characterization of the T-cells the differentiation markers anti-CD45RO, mouse (1:200, clone: HI100), anti-CD62L, mouse (1:400, clone: DREG-56), anti-CD28, mouse (1:200, clone: CD28.2) and anti-CD27, mouse (1:200, clone: M-T271) were co-analyzed by flow cytometry. […] NY-ESO-1 specific T cell activity was determined by intracellular TNFα and IFNγ quantified via flow cytometry as described above."}},
  "data": [
    {"molecule": "Nc1ncnc2c1ncn2[C@@H]1O[C@H](COP(=O)(O)OP(=O)(O)O)[C@@H](O)[C@H]1O", "note": "[ADP]", "values": [
      {"measurement": "pPD-L1 expression on the platelet surface upon platelet stimulation", "setting": "platelets", "result": "maximized"}
    ]},
    {"molecule": "CCCCS(=O)(=O)N[C@@H](Cc1ccc(OCCCCC2CCNCC2)cc1)C(=O)O", "note": "[Tirofiban]", "values": [
      {"measurement": "platelet adhesion to fibronectin", "setting": "[1]", "result": "only marginally reduced"}
    ]},
    {"molecule": "C[C@@H]1C[C@@H]([C@H](O)CC2CC(=O)NC(=O)C2)C(=O)[C@@H](C)C1", "note": "[cycloheximide]", "values": [
      {"measurement": "PD-L1-GFP expression in platelets", "setting": "[2]", "result": "did not result in a reduction"}
    ]},
    {"molecule": "Atezolizumab", "values": [
      {"measurement": "T cell inhibitory effect of PD-L1 expressing platelets", "setting": "PD-L1 on platelets [3]", "result": "abolished"},
      {"measurement": "T cell (CD4+ TEM) activity, IFNγ and TNFα release", "setting": "PD-L1 on platelets [4]", "result": "restored"}
    ]},
    {"molecule": "Thrombin Receptor Activator Peptide 6 [TRAP-6]", "values": [
      {"measurement": "pPD-L1 expression on the platelet surface upon platelet stimulation", "setting": "platelets", "result": "maximized"}
    ]},
    {"molecule": "collagen", "values": [
      {"measurement": "pPD-L1 expression on the platelet surface upon platelet stimulation", "setting": "platelets", "result": "maximized"}
    ]}
  ]
}
